# Reference: patent publication US10076519B2 (CYTOKINETICS, INC., priority 2010, dated 2018)
# Tested on: rabbit skeletal myofibrils (fast skeletal myofibrils)
# Experiment: Activation of fast skeletal myofibrils (PUMA assay, PK/LDH-coupled ATPase at pCa25)
# Assay type: biochemical
# Outline: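 ATPase activity of Triton-washed rabbit skeletal myofibrils, roughly 90% fast fibres, tracked by NADH loss at 340 nm through a PK/LDH-coupled ADP-regenerating system. Calcium set to 25% of maximal activity (pCa25), in PIPES 12 mM pH 6.8 with 2 mM MgCl2 and 1 mM DTT; AC1.4 reported.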
# [1] = median AC1.4 class, procedure of Example 39
# [2] = median AC1.4 reported as class, procedure of Example 39
# [3] = AC1.4 determined according to the procedure of Example 39, reported as class symbols
Structure (SMILES),Mean AC1.4 [2],Mean AC1.4 [3],other results
"COC(=O)NCc1cnc(-c2ccc(NCC3(c4ncccc4F)CCC3)nn2)s1 [N-({2-[6-({[(3-fluoro(2-pyridyl))cyclobutyl]methyl}ami-no)pyridazin-3-yl](1,3-thiazol-5-yl)}methyl)methoxycarboxamide]",–,–,Mean AC1.4 [1]: B (B=1-10 uM)
"O=C(NCc1cnc(-c2ccc(NCC3(c4ncccc4F)CCC3)nn2)s1)c1cn[nH]c1 [N-({2-[6-({[(3-fluoro(2-pyridyl))cyclobutyl]methyl}ami-no)pyridazin-3-yl](1,3-thiazol-5-yl)}methyl)pyrazol-4-ylcarboxamide]",–,–,Mean AC1.4 [1]: A (A=<1 uM)
"O=C(NCc1cnc(-c2ccc(NCC3(c4ncccc4F)CCC3)nn2)s1)c1ccn[nH]1 [N-({2-[6-({[(3-fluoro(2-pyridyl))cyclobutyl]methyl}ami-no)pyridazin-3-yl](1,3-thiazol-5-yl)}methyl)pyrazol-5-ylcarboxamide]",–,–,Mean AC1.4 [1]: A (A=<1 uM)
"O=C(NCc1cnc(-c2ccc(NCC3(c4ncccc4F)CCC3)nn2)s1)C1(NCc2ccccc2)COC1 [N-({2-[6-({[(3-fluoro(2-pyridyl))cyclobutyl]methyl}ami-no)pyridazin-3-yl](1,3-thiazol-5-yl)}methyl){3-[benzylamino]oxetan-3-yl}carboxamide]",–,–,Mean AC1.4 [1]: A (A=<1 uM)
"CC(=O)NCc1cnc(-c2ccc(NCC3(c4ncccc4F)CCC3)nn2)s1 [N-({2-[6-({[(3-fluoro-2-pyridyl)cyclobutyl]methyl}ami-no)pyridazin-3-yl]-1,3-thiazol-5-yl}methyl)acetamide]",–,–,Mean AC1.4 [1]: A (A=<1 uM)
CC(=O)NCc1cccc(-c2ccc(NC[C@]3(c4ncccc4F)C[C@H](F)C3)nn2)c1 [N-({3-[6-({[3-fluoro-1-(3-fluoro(2-pyridyl))cyclobutyl]methyl}ami-no)pyridazin-3-yl]phenyl}methyl)acetamide],B (B=1-10 uM),–,–
"CC(=O)NCc1nc(-c2ccc(NCC3(c4ncccc4F)CCC3)nn2)cs1 [N-({4-[6-({[(3-fluoro-2-pyridyl)cyclobutyl]methyl}ami-no)pyridazin-3-yl]-1,3-thiazol-2-yl}methyl)acetamide]",D (D=>20 uM),–,–
CC(=O)NCc1ccc(F)c(-c2ccc(NC[C@]3(c4ncccc4F)C[C@H](F)C3)nn2)c1 [N-({4-fluoro-3-[6-({[3-fluoro-1-(3-fluoro(2-pyridyl))cyclobutyl]methyl}ami-no)pyridazin-3-yl]phenyl}methyl)acetamide],B (B=1-10 uM),–,–
"CC(=O)NCc1ncc(-c2ccc(NCC3(c4ncccc4F)CCC3)nn2)s1 [N-({5-[6-({[(3-fluoro-2-pyridyl)cyclobutyl]methyl}ami-no)pyridazin-3-yl]-1,3-thiazol-2-yl}methyl)acetamide]",B (B=1-10 uM),–,–
CC(=O)Nc1nc(-c2ccc(NCC(C)(C)c3ccc(F)cc3)nn2)c[nH]1 [N-[4-(6-{[2-(4-fluorophenyl)-2-methylpropyl]amino}pyridazin-3-yl)imidazol-2-yl]acetamide],–,C (C=10-20 uM),–
"NC(=O)Cc1csc(NC(=O)c2ccc(NCC3(c4ncccc4F)CCC3)nn2)n1 [N-[4-(carbamoylmethyl)(1,3-thiazol-2-yl)][6-({[(3-fluoro(2-pyridyl))cyclobutyl]methyl}ami-no)pyridazin-3-yl]carboxamide]",A (A=<1 uM),–,–
COC(=O)Nc1n[nH]c2ccc(-c3ccc(NCC(C)(C)c4ccc(F)cc4)nn3)cc12 [N-[5-(6-{[2-(4-fluorophenyl)-2-methylpropyl]amino}pyridazin-3-yl)(1H-indazol-3-yl)]methoxycarboxamide],–,A (A=<1 uM),–
CC(=O)Nc1n[nH]c2ccc(-c3ccc(NCC(C)(C)c4ccc(F)cc4)nn3)cc12 [N-[5-(6-{[2-(4-fluorophenyl)-2-methylpropyl]amino}pyridazin-3-yl)-1H-indazol-3-yl]acetamide],–,A (A=<1 uM),–
CC(=O)Nc1ccc(-c2ccc(NCC(C)(C)c3ccc(F)cc3)nn2)cn1 [N-[5-(6-{[2-(4-fluorophenyl)-2-methylpropyl]amino}pyridazin-3-yl)-2-pyridyl]acetamide],–,B (B=1-10 uM),–
"NC(=O)Cc1nnc(NC(=O)c2ccc(NCC3(c4ncccc4F)CCC3)nn2)s1 [N-[5-(carbamoylmethyl)(1,3,4-thiadiazol-2-yl)][6-({[(3-fluoro(2-pyridyl))cyclobutyl]methyl}ami-no)pyridazin-3-yl]carboxamide]",D (D=>20 uM),–,–
CC(=O)Nc1nc2cc(-c3ccc(NCC(C)(C)c4ccc(F)cc4)nn3)ccc2[nH]1 [N-[6-(6-{[2-(4-fluorophenyl)-2-methylpropyl]amino}pyridazin-3-yl)benzimidazol-2-yl]acetamide],–,A (A=<1 uM),–
COC(=O)NCc1ccc(NCC(C)(C)c2ccc(F)cc2)nn1 [N-[(6-{[2-(4-fluorophenyl)-2-methylpropyl]amino}pyridazin-3-yl)methyl]methoxycarboxamide],–,D (D=>20 uM),–
O=C(NC1CNC1)c1cccc(-c2ccc(NC[C@]3(c4ncccc4F)C[C@H](F)C3)nn2)c1 [N-azetidin-3-yl{3-[6-({[3-fluoro-1-(3-fluoro(2-pyridyl))cyclobutyl]methyl}ami-no)pyridazin-3-yl]phenyl}carboxamide],B (B=1-10 uM),–,–

Structure (SMILES),Mean AC1.4 [2],Mean AC1.4 [3],other results
O=C(NC1CCC1)c1ccc(F)c(-c2ccc(NC[C@]3(c4ncccc4F)C[C@H](F)C3)nn2)c1 [N-cyclobutyl{4-fluoro-3-[6-({[3-fluoro-1-(3-fluoro(2-pyridyl))cyclobutyl]methyl}ami-no)pyridazin-3-yl]phenyl}carboxamide],A (A=<1 uM),–,–
O=C(NC1CC1)c1cccc(-c2ccc(NC[C@]3(c4ncccc4F)C[C@H](F)C3)nn2)c1 [N-cyclopropyl{3-[6-({[3-fluoro-1-(3-fluoro(2-pyridyl))cyclobutyl]methyl}ami-no)pyridazin-3-yl]phenyl}carboxamide],B (B=1-10 uM),–,–
O=C(NC1CC1)c1ccc(F)c(-c2ccc(NC[C@]3(c4ncccc4F)C[C@H](F)C3)nn2)c1 [N-cyclopropyl{4-fluoro-3-[6-({[3-fluoro-1-(3-fluoro(2-pyridyl))cyclobutyl]methyl}ami-no)pyridazin-3-yl]phenyl}carboxamide],A (A=<1 uM),–,–
CCNC(=O)c1cc(-c2ccc(NC[C@]3(c4ncccc4F)C[C@H](F)C3)nn2)ccc1F [N-ethyl{2-fluoro-5-[6-({[3-fluoro-1-(3-fluoro(2-pyridyl))cyclobutyl]methyl}ami-no)pyridazin-3-yl]phenyl}carboxamide],C (C=10-20 uM),–,–
CCNC(=O)c1ccc(F)c(-c2ccc(NC[C@]3(c4ncccc4F)C[C@H](F)C3)nn2)c1 [N-ethyl{4-fluoro-3-[6-({[3-fluoro-1-(3-fluoro(2-pyridyl))cyclobutyl]methyl}ami-no)pyridazin-3-yl]phenyl}carboxamide],B (B=1-10 uM),–,–
"COC(=O)NC1CCc2sc(-c3ccc(NCC4(c5ncccc5F)CCC4)nn3)nc21 (centres unmarked) [N-{2-[6-({[(3-fluoro(2-pyridyl))cyclobutyl]methyl}ami-no)pyridazin-3-yl](4,5,6-trihydrocyclopenta[2,3-d]1,3-thiazol-4-yl)}methoxycarboxamide]",D (D=>20 uM),–,–
CC(C)(C)OC(=O)NCCCNC(=O)c1cccc(-c2ccc(NCC(C)(C)c3ccc(F)cc3)nn2)c1 [N-{3-[(tert-butoxy)carbonylamino]propyl}[3-(6-{[2-(4-fluorophenyl)-2-methylpropyl]amino}pyridazin-3-yl)phenyl]carboxamide],–,B (B=1-10 uM),–
CNC(=O)Nc1ccc(-c2ccc(NC[C@]3(c4ncccc4F)C[C@H](F)C3)nn2)c(F)c1 [N-{3-fluoro-4-[6-({[3-fluoro-1-(3-fluoro(2-pyridyl))cyclobutyl]methyl}ami-no)pyridazin-3-yl]phenyl}(methylamino)carbox-amide],A (A=<1 uM),–,–
CNC(=O)Nc1ccc(-c2ccc(NC[C@]3(c4ncccc4F)C[C@H](F)C3)nn2)cc1 [N-{4-[6-({[3-fluoro-1-(3-fluoro(2-pyridyl))cyclobutyl]methyl}ami-no)pyridazin-3-yl]phenyl}(methylamino)carbox-amide],A (A=<1 uM),–,–
CNC(=O)N(C)c1ccc(-c2ccc(NC[C@]3(c4ncccc4F)C[C@H](F)C3)nn2)cc1 [N-{4-[6-({[3-fluoro-1-(3-fluoro(2-pyridyl))cyclobutyl]methyl}ami-no)pyridazin-3-yl]phenyl}-N-methyl(methylamino)carboxamide],D (D=>20 uM),–,–
CC(=O)Nc1nccc(-c2ccc(NCC3(c4ncccc4F)CCC3)nn2)n1 [N-{4-[6-({[(3-fluoro-2-pyridyl)cyclobutyl]methyl}ami-no)pyridazin-3-yl]pyrimidin-2-yl}acetamide],–,–,Mean AC1.4 [1]: C (C=10-20 uM)
CC(=O)NCc1ccc(-c2ccc(NCC(C)(C)c3ccc(F)cc3)nn2)cn1 [N-{[5-(6-{[2-(4-fluorophenyl)-2-methylpropyl]amino}pyridazin-3-yl)-2-pyridyl]methyl}acetamide],–,C (C=10-20 uM),–
CC(C)(CNc1ccc(-c2cccnc2)nn1)c1ccccc1Cl [[2-(2-chlorophenyl)-2-methylpropyl](6-(3-pyridyl)pyridazin-3-yl)amine],–,B (B=1-10 uM),–
CC(C)(CNc1ccc(-c2cncnc2)nn1)c1ccccc1Cl [[2-(2-chlorophenyl)-2-methylpropyl](6-pyrimidin-5-ylpyridazin-3-yl)amine],–,B (B=1-10 uM),–
CC(C)(CNc1ccc(-c2ccccn2)nn1)c1ccc(F)cc1 [[2-(4-fluorophenyl)-2-methylpropyl](6-(2-pyridyl)pyridazin-3-yl)amine],–,B (B=1-10 uM),–
CC(C)(CNc1ccc(-c2cccnc2)nn1)c1ccc(F)cc1 [[2-(4-fluorophenyl)-2-methylpropyl](6-(3-pyridyl)pyridazin-3-yl)amine],–,B (B=1-10 uM),–
"CC(C)(CNc1ccc(C2=CCNCC2)nn1)c1ccc(F)cc1 [[2-(4-fluorophenyl)-2-methylpropyl](6-(4-1,2,5,6-tetrahydropyridyl)pyridazin-3-yl)amine]",–,B (B=1-10 uM),–
